# Reference: patent US10913738B2 (BRISTOL-MYERS SQUIBB COMPANY, priority 2017, dated 2021)
# pIC50: −log10 of the molar value. Like-named read-outs stand apart in the source and are kept apart here.
# Columns and labels:
# [1] = biological target: T1, His-GST-TVMV-hRIPK1(1-324) (Homo sapiens, UniProt Q13546); assay: RIPK1 HTRF Binding Assay
# T1 construct: The coding region of human RIPK1(1-324) flanked by NdeI site at 5′ end; made in house; host or cells: Spodoptera frugiperda (Sf9) insect cells, baculovirus
# T1 sequence (Q13546 1-324): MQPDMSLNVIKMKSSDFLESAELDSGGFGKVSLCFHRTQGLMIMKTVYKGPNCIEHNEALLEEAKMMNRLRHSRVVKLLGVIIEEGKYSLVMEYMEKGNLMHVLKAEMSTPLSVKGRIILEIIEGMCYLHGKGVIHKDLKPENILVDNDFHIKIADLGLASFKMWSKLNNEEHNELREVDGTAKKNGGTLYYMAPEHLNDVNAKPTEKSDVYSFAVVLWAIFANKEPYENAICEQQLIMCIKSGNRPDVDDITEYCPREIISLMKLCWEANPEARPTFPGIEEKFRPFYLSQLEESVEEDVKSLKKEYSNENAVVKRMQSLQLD
# [2] = tested on: MLKL phosphorylation in HT29-L23 human colorectal adenocarcinoma cells; assay: MLKL Phosphorylation High-Content Assay; assay type: cell-based; details: Homo sapiens
# Outline: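 IC50 and Ymax obtained by 4-parameter logistic fitting of MLKL phosphorylation, measured as mean circ-ring average intensity ratio from high-content images. Staining used an anti-phospho-S358 MLKL antibody overnight at 4° C., following six-hour cell incubation at 37° C.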
# [3] = x marks IC50 class 20-200 nM, read-out: RIPK1 HTRF binding 20-200 nM
# [4] = x marks IC50 class >200 nM, read-out: pMLKL cell activity >200 nM
# [5] = x marks IC50 class <20 nM, read-out: RIPK1 HTRF binding <20 nM
# [6] = x marks IC50 class 20-200 nM, read-out: pMLKL cell activity 20-200 nM
SMILES,"pIC50 [1, 3]","pIC50 [2, 4]","pIC50 ([1]; x marks IC50 class >200 nM, read-out: RIPK1 HTRF binding >200 nM)","pIC50 [1, 5]","pIC50 [2, 6]"
"COc1cnc(-c2ccn3nc(N)nc3c2)cc1C(=O)N[C@H](C)c1cc(OC(F)(F)F)ccc1F [Example 389, (R)-2-(2-amino-[1,2,4]triazolo[1,5-a]pyridin-7-yl)-N-(1-(2-fluoro-5-(trifluoromethoxy)phenyl)ethyl)-5-methoxyisonicotinamide]",6.70 to 7.70,< 6.70,,,
"COc1cnc(-c2ccn3nc(N)nc3c2)cc1C(=O)NCCC(C)c1ccccc1 (stereo not shown) [Example 390, 2-(2-amino-[1,2,4]triazolo[1,5-a]pyridin-7-yl)-5-methoxy-N-(3-phenylbutyl)isonicotinamide]",6.70 to 7.70,< 6.70,,,
"COc1cnc(-c2ccn3nc(N)nc3c2)cc1C(=O)NCc1cc(C(F)(F)F)ccc1F [Example 391, 2-(2-amino-[1,2,4]triazolo[1,5-a]pyridin-7-yl)-N-(2-fluoro-5-(trifluoromethyl)benzyl)-5-methoxyisonicotinamide]",,< 6.70,< 6.70,,
"Cc1cnc(-c2ccn3nc(N)nc3c2)cc1C(=O)N[C@H](C)c1cc(OC(F)(F)F)ccc1F [Example 392, (R)-2-(2-amino-[1,2,4]triazolo[1,5-a]pyridin-7-yl)-N-(1-(2-fluoro-5-(trifluoromethoxy)phenyl)ethyl)-5-methylisonicotinamide]",,,,> 7.70,6.70 to 7.70
"Cc1cnc(-c2ccn3nc(N)nc3c2)cc1C(=O)NCCC(C)c1ccccc1 (stereo not shown) [Example 393, 2-(2-amino-[1,2,4]triazolo[1,5-a]pyridin-7-yl)-5-methyl-N-(3-phenylbutyl)isonicotinamide]",,,,> 7.70,6.70 to 7.70
"Cc1cnc(-c2ccn3nc(N)nc3c2)cc1C(=O)NCc1cc(OC(F)(F)F)ccc1F [Example 394, 2-(2-amino-[1,2,4]triazolo[1,5-a]pyridin-7-yl)-N-(2-fluoro-5-(trifluoromethoxy)benzyl)-5-methylisonicotinamide]",,,,> 7.70,6.70 to 7.70
"Cc1cnc(-c2ccn3nc(N)nc3c2)cc1C(=O)NCC[C@@H](O)c1ccc(Cl)cc1 [Example 395, (R)-2-(2-amino-[1,2,4]triazolo[1,5-a]pyridin-7-yl)-N-(3-(4-chlorophenyl)-3-hydroxypropyl)-5-methylisonicotinamide]",,,,> 7.70,6.70 to 7.70
"Cc1cnc(-c2ccn3nc(N)nc3c2)cc1C(=O)NCc1cc(C(F)(F)F)ccc1F [Example 398, 2-(2-amino-[1,2,4]triazolo[1,5-a]pyridin-7-yl)-N-(2-fluoro-5-(trifluoromethyl)benzyl)-5-methylisonicotinamide]",6.70 to 7.70,,,,6.70 to 7.70
"Cc1cnc(C(=O)NCc2cc(OC(F)(F)F)ccc2F)cc1-c1ccn2nc(N)nc2c1 [Example 399, 4-(2-amino-[1,2,4]triazolo[1,5-a]pyridin-7-yl)-N-(2-fluoro-5-(trifluoromethoxy)benzyl)-5-methylpicolinamide]",6.70 to 7.70,,,,6.70 to 7.70
"Cc1cnc(C(=O)NCCC(C)c2ccccc2)cc1-c1ccn2nc(N)nc2c1 (stereo not shown) [Example 400, 4-(2-amino-[1,2,4]triazolo[1,5-a]pyridin-7-yl)-5-methyl-N-(3-phenylbutyl)picolinamide]",,,,> 7.70,6.70 to 7.70
"Cc1ccc(-c2ccn3nc(N)nc3c2)nc1C(=O)NCC[C@H](O)c1ccc(Cl)cc1 [Example 401, (S)-6-(2-amino-[1,2,4]triazolo[1,5-a]pyridin-7-yl)-N-(3-(4-chlorophenyl)-3-hydroxypropyl)-3-methylpicolinamide]",,,,> 7.70,6.70 to 7.70
"Cc1ccc(-c2ccn3nc(N)nc3c2)nc1C(=O)NCC[C@@H](O)c1ccc(Cl)cc1 [Example 402, (R)-6-(2-amino-[1,2,4]triazolo[1,5-a]pyridin-7-yl)-N-(3-(4-chlorophenyl)-3-hydroxypropyl)-3-methylpicolinamide]",6.70 to 7.70,,,,6.70 to 7.70
"Cc1ccc(-c2ccn3nc(N)nc3c2)nc1C(=O)N[C@H](C)c1cc(OC(F)(F)F)ccc1F [Example 403, (R)-6-(2-amino-[1,2,4]triazolo[1,5-a]pyridin-7-yl)-N-(1-(2-fluoro-5-(trifluoromethoxy)phenyl)ethyl)-3-methylpicolinamide]",,,,> 7.70,6.70 to 7.70
"Cc1ccc(-c2ccn3nc(N)nc3c2)nc1C(=O)NCCC(C)c1ccccc1 (stereo not shown) [Example 404, 6-(2-amino-[1,2,4]triazolo[1,5-a]pyridin-7-yl)-3-methyl-N-(3-phenylbutyl)picolinamide]",6.70 to 7.70,,,,6.70 to 7.70
"Cc1ccc(-c2ccn3nc(N)nc3c2)nc1C(=O)NCc1cc(OC(F)(F)F)ccc1F [Example 405, 6-(2-amino-[1,2,4]triazolo[1,5-a]pyridin-7-yl)-N-(2-fluoro-5-(trifluoromethoxy)benzyl)-3-methylpicolinamide]",6.70 to 7.70,< 6.70,,,
"COc1ccc(-c2ccn3nc(N)nc3c2)nc1C(=O)N[C@H](C)c1cc(OC(F)(F)F)ccc1F [Example 406, (R)-6-(2-amino-[1,2,4]triazolo[1,5-a]pyridin-7-yl)-N-(1-(2-fluoro-5-(trifluoromethoxy)phenyl)ethyl)-3-methoxypicolinamide]",6.70 to 7.70,< 6.70,,,
"Cc1cnc(-c2ccn3nc(N)nc3c2)nc1C(=O)N[C@H](C)c1cc(OC(F)(F)F)ccc1F [Example 407, (R)-2-(2-amino-[1,2,4]triazolo[1,5-a]pyridin-7-yl)-N-(1-(2-fluoro-5-(trifluoromethoxy)phenyl)ethyl)-5-methylpyrimidine-4-carboxamide]",6.70 to 7.70,,,,6.70 to 7.70
"Cc1cnc(-c2ccn3nc(N)nc3c2)nc1C(=O)NCC[C@@H](O)c1ccc(Cl)cc1 [Example 408, (R)-2-(2-amino-[1,2,4]triazolo[1,5-a]pyridin-7-yl)-N-(3-(4-chlorophenyl)-3-hydroxypropyl)-5-methylpyrimidine-4-carboxamide]",6.70 to 7.70,,,,6.70 to 7.70
"Cc1cnc(-c2ccn3nc(N)nc3c2)nc1C(=O)N[C@H](C)c1cc(C(F)(F)F)ccc1F [Example 409, (R)-2-(2-amino-[1,2,4]triazolo[1,5-a]pyridin-7-yl)-N-(1-(2-fluoro-5-(trifluoromethyl)phenyl)ethyl)-5-methylpyrimidine-4-carboxamide]",6.70 to 7.70,,,,6.70 to 7.70
"Cc1cnc(-c2ccn3nc(N)nc3c2)nc1C(=O)NCC[C@H](O)c1ccc(Cl)cc1 [Example 410, (S)-2-(2-amino-[1,2,4]triazolo[1,5-a]pyridin-7-yl)-N-(3-(4-chlorophenyl)-3-hydroxypropyl)-5-methylpyrimidine-4-carboxamide]",6.70 to 7.70,,,,6.70 to 7.70
"Cc1cnc(-c2ccn3nc(N)nc3c2)nc1C(=O)NCCC(C)c1ccccc1 (stereo not shown) [Example 411, 2-(2-amino-[1,2,4]triazolo[1,5-a]pyridin-7-yl)-5-methyl-N-(3-phenylbutyl)pyrimidine-4-carboxamide]",6.70 to 7.70,< 6.70,,,
"Cc1ncc(-c2ccn3nc(N)nc3c2)cc1NC(=O)c1cnn(Cc2ccccc2)c1 [Example 412, N-(5-(2-amino-[1,2,4]triazolo[1,5-a]pyridin-7-yl)-2-methylpyridin-3-yl)-1-benzyl-1H-pyrazole-4-carboxamide]",,,,> 7.70,6.70 to 7.70
"COc1ncc(-c2ccn3nc(N)nc3c2)cc1NC(=O)Cc1cc(OC(F)(F)F)ccc1F [Example 414, N-(5-(2-amino-[1,2,4]triazolo[1,5-a]pyridin-7-yl)-2-methoxypyridin-3-yl)-2-(2-fluoro-5-(trifluoromethoxy)phenyl)acetamide]",,,,> 7.70,6.70 to 7.70
